Test results as given in article PMC11278016, “Discovery of Prenyltransferase-Guided Hydroxyphenylacetic Acid Derivatives from Marine Fungus Penicillium sp. W21C371” (Marine Drugs, 2024).

How the values were obtained:
[1] = test system: methicillin-resistant Staphylococcus aureus (MRSA); parameters: method as in PMID 24643052; conditions: MRSA virulence factor; cited from earlier work
[2] = target: Escherichia coli β-glucuronidase (EcGUS) (Escherichia coli, UniProt P05804); assay: EcGUS inhibition assay; assay type: biochemical; conditions: for IC50: EcGUS inhibition, mean ± SD, three independent experiments; for Ki′ (inhibition constant of the enzyme–substrate complex): EcGUS–substrate complex, secondary plot of Y-intercept versus [I]; for type of inhibition: Lineweaver–Burk plots; for Ki: free EcGUS, secondary plot of slope versus [I], Lineweaver–Burk, read-out: Ki (inhibition constant of the enzyme); for inhibition at 100 µM: preliminary screening at a concentration of 100 μM, read-out: relative inhibitory rate
Method: All isolates 1–17 were evaluated for their in vitro inhibitory activity against EcGUS, a potential target for the treatment of drug-induced gastrointestinal disorders, employing D-saccharic acid 1,4-lactone (DSL) as the positive control. […] In view of the potent inhibitory activity of 2 and 3 against EcGUS, their kinetic mechanisms of inhibition were determined using Lineweaver–Burk plots (Figure 5 and Table S1). The inhibition constants of the enzyme Ki and the enzyme–substrate complex Ki^′ were obtained by secondary plots of “slope versus [I]” and “Y-intercept versus [I]”, respectively. […] As a mixed-type inhibitor of EcGUS, 3 was supposed to bind either the free EcGUS or the EcGUS–substrate complex. […] To the best of our knowledge, 2 and 3 represent the first citridone and ergosterol derivatives with potent EcGUS-inhibitory activity. However, 2 and 3 were obtained in limited amount in the present study, preventing the in vivo evaluation of their EcGUS inhibition activity. The optimization of the fermentation and separation processes with the aim of increasing the yields of 2 and 3 is underway, which may help to accumulate greater amounts of the two compounds for further in-depth pharmacological studies.
Optical rotations were obtained with a Rudolph Research Autopol III automatic polarimeter. IR spectra were recorded on a Thermo Nicolet 6700 FT-IR microscope instrument (FT-IR microscope transmission) in KBr pellets. UV spectra were measured on a TU-1900 spectrometer (Persee, Beijing, China). Meanwhile, 1D and 2D-NMR spectra were obtained at 600 MHz for ^1H and 150 MHz for ^13C on a Bruker Avance 600 spectrometer, with solvent peaks used as references. HRESIMS data were measured on an Agilent-6210-LC/TOF mass spectrometer (Agilent Technologies, Inc., Santa Clara, CA, USA). EcGUS-inhibitory activity was measured spectrophotometrically using a SpectraMax Plus 384 microplate reader (Molecular Devices, San Jose, CA, USA). Column chromatography (CC) was performed on silica gel (SiO2; 200–300 mesh; Qingdao Marine Chemical Co., Ltd.), ODS C-18 gel (50 mm; YMC Co., Ltd., Kyoto, Japan), and MCI CHP20P gel (75–150 μm, Tokyo, Japan). Semi-preparative HPLC was performed on an Cosmosil 5C18-MS-II column (5 μm, 250 × 10 mm) with a Shimadzu LC-20AT system eluting with methanol/water or acetonitrile/water at a flow rate of 3 mL/min. Chiral separation was performed on a Chiralpak AD-H column (5 μm, 4.6 × 250 mm). Thin layer chromatography (TLC) was performed on precoated silica gel GF254 plates (Qingdao Marine Chemical Co., Ltd., Qingdao, China) and visualized by UV light and/or spraying with 10% H2SO4 in 95% EtOH, followed by heating. All solvents used were of analytical grade and obtained from commercially available sources. All reagents used for biological evaluation were obtained from Sigma-Aldrich (St. Louis, MO, USA).
The EcGUS inhibition assay was performed according to the method previously reported, employing DSL as the positive control. The results are presented as means ± SD for three independent experiments.

[3] = test system: Candida albicans; parameters: method as in PMID 19160522; conditions: against Candida albicans; cited from earlier work

Sequence of Escherichia coli β-glucuronidase (EcGUS) (P05804 whole entry): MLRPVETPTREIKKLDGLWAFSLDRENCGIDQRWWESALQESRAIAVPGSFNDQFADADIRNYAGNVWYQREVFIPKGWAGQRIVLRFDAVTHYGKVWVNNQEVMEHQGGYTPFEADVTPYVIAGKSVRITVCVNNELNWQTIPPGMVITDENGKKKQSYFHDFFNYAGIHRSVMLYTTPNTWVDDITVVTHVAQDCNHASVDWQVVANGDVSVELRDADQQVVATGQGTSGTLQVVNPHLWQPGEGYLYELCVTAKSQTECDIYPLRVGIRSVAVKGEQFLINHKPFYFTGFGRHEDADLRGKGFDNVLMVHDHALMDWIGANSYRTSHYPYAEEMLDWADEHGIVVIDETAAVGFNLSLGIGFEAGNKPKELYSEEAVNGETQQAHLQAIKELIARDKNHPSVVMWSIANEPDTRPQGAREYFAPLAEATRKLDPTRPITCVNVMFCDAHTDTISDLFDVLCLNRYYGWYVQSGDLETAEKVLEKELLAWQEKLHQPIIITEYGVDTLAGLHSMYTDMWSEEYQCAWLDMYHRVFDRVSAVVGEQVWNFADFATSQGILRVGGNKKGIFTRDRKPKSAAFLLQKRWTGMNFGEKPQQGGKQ

| SMILES | inhibition of staphyloxanthin biosynthesis [1] | IC50 [2] [µM] | Ki′ (inhibition constant of the enzyme–substrate complex) [2] [µM] | type of inhibition [2] | Ki [2] [µM] | Vmax ([2]; inhibitor concentration 0.02 mM) [mg/μmol⋅min] | Vmax ([2]; inhibitor concentration 0.04 mM) [mg/μmol⋅min] | Vmax ([2]; inhibitor concentration 0.08 mM) [mg/μmol⋅min] | inhibition at 100 µM [2] [%] | potentiation of miconazole activity [3] | Vmax ([2]; inhibitor concentration 0.015 mM) [mg/μmol⋅min] | Vmax ([2]; inhibitor concentration 0.030 mM) [mg/μmol⋅min] | Vmax ([2]; inhibitor concentration 0.050 mM) [mg/μmol⋅min] |
| --- | --- | --- | --- | --- | --- | --- | --- | --- | --- | --- | --- | --- | --- |
| CC1=CC2(C)Oc3c(-c4ccccc4)c[nH]c(=O)c3C2C1C (stereo not shown) [Compound 2, citridone A] | inhibit the biosynthesis of staphyloxanthin | 44.6 ± 0.84 | 69.20 | non-competitive inhibitor | 76.3 | 38.33 ± 2.97 | 32.36 ± 3.11 | 23.58 ± 2.49 | > 60 | potentiator of miconazole | – | – | – |
| O=C(O)[C@@H](O)[C@H]1OC(=O)[C@H](O)[C@H]1O [DSL, D-saccharic acid 1,4-lactone, reference compound] | – | 47.9 ± 0.89 | – | – | – | – | – | – | – | – | – | – | – |
| CC(=C[C@@H](C)[C@H]1CC[C@@H]2[C@]1(C)CC=C1[C@]23C=C[C@]2(C[C@@H](O)CC[C@]12C)OO3)[C@H](C)C(C)C [Compound 3, 5α,8α-epidioxy-23,24(R)-dimethylcholesta-6,9(11),22-trien-3β-ol] | – | 21.6 ± 0.76 | 48.80 | mixed-type | 89 | – | – | – | > 60 | – | 29.05 ± 1.14 | 22.03 ± 1.06 | 18.22 ± 0.64 |
